Source: ChEMBL document CHEMBL3046155, “Synthesis and antimicrobial activity of 7-alkoxyhesperetin derivatives” (2011)
Values after ≈ are worked out from the molar mass of the structure shown. Active and inactive are the calls of the source. No cut-off for these calls is given here.

Legend:
Assay type in all cases: functional
[1] = tested on: Proteus vulgaris; experiment: Antibacterial activity against Proteus vulgaris ATCC 14153 after 24 hr by two-fold serial dilution test; details: ATCC 14153, 24 h
[2] = tested on: Bacillus subtilis; experiment: Antibacterial activity against Bacillus subtilis ATCC 9372 after 24 hr by two-fold serial dilution test; details: ATCC 9372, 24 h
[3] = tested on: Escherichia coli; experiment: Antibacterial activity against Escherichia coli ATCC 25922 after 24 hr by two-fold serial dilution test; details: ATCC 25922, 24 h
[4] = tested on: Staphylococcus aureus; experiment: Antibacterial activity against Staphylococcus aureus ATCC 25923 after 24 hr by two-fold serial dilution test; details: ATCC 25923, 24 h
[5] = tested on: Staphylococcus aureus; experiment: Antibacterial activity against Staphylococcus aureus ATCC 25923 at 400 ug/mL after 24 hr by agar well diffusion assay
[6] = tested on: Escherichia coli; experiment: Antibacterial activity against Escherichia coli ATCC 25922 at 400 ug/mL after 24 hr by agar well diffusion assay
[7] = tested on: Bacillus subtilis; experiment: Antibacterial activity against Bacillus subtilis ATCC 9372 at 400 ug/mL after 24 hr by agar well diffusion assay

SMILES | MIC [1] | MIC [2] | MIC [3] | MIC [4] | diameter of the inhibition zone (DIZ) [5] | diameter of the inhibition zone (DIZ) [6] | diameter of the inhibition zone (DIZ) [7]
CCCCOc1cc(O)c2c(c1)O[C@H](c1ccc(OC)c(O)c1)CC2=O [7-BUTOXYHESPERETIN] | 50 µg/mL (≈ 140 µM) | 100 µg/mL (≈ 279 µM) | 100 µg/mL (≈ 279 µM) | 25 µg/mL (≈ 69.8 µM) |  |  | 
CCCCCCCCCCCCOc1cc(O)c2c(c1)O[C@H](c1ccc(OC)c(O)c1)CC2=O [7-DODECYLOXYHESPERETIN] | 12.5 µg/mL (≈ 26.6 µM) | 50 µg/mL (≈ 106 µM) | 50 µg/mL (≈ 106 µM) | 6.25 µg/mL (≈ 13.3 µM) |  |  | 
COc1cc(O)c2c(c1)O[C@H](c1ccc(OC)c(O)c1)CC2=O [7-METHOXYHESPERETIN] | 50 µg/mL (≈ 158 µM) | 200 µg/mL (≈ 632 µM) | 200 µg/mL (≈ 632 µM) | 100 µg/mL (≈ 316 µM) |  |  | 
CCCCCCCCOc1cc(O)c2c(c1)O[C@H](c1ccc(OC)c(O)c1)CC2=O [7-OCTOXYHESPERETIN] | 25 µg/mL (≈ 60.3 µM) | 50 µg/mL (≈ 121 µM) | 25 µg/mL (≈ 60.3 µM) | 12.5 µg/mL (≈ 30.2 µM) |  |  | 
COc1ccc([C@@H]2CC(=O)c3c(O)cc(O)cc3O2)cc1O [HESPERETIN] | 100 µg/mL (≈ 331 µM) | 200 µg/mL (≈ 662 µM) |  |  | inactive | inactive | 
COc1ccc([C@@H]2CC(=O)c3c(O)cc(O[C@@H]4O[C@H](CO[C@@H]5O[C@@H](C)[C@H](O)[C@@H](O)[C@H]5O)[C@@H](O)[C@H](O)[C@H]4O)cc3O2)cc1O [HESPERIDIN] | 200 µg/mL (≈ 328 µM) |  |  |  | inactive | inactive | inactive
CN[C@@H]1[C@H](O[C@H]2[C@H](O[C@H]3[C@H](O)[C@@H](O)[C@H](N=C(N)N)[C@@H](O)[C@@H]3N=C(N)N)O[C@@H](C)[C@]2(O)C=O)O[C@@H](CO)[C@H](O)[C@H]1O.CN[C@@H]1[C@H](O[C@H]2[C@H](O[C@H]3[C@H](O)[C@@H](O)[C@H](N=C(N)N)[C@@H](O)[C@@H]3N=C(N)N)O[C@@H](C)[C@]2(O)C=O)O[C@@H](CO)[C@H](O)[C@H]1O.O=S(=O)(O)O.O=S(=O)(O)O.O=S(=O)(O)O [STREPTOMYCIN SULFATE] | 3.13 µg/mL | 50 µg/mL | 1.56 µg/mL | 25 µg/mL |  |  | 
